Measurements as given in patent publication US20090022803A1, “Oral Formulations For Delivery of Catecholic Butanes Including Ndga Compounds” (priority 2005, published 2009).
Where two headings read alike, the source gives them in different places.

Type: physicochemical
Description: A 10 mL solution of M4N at a concentration of about 10 mg/mL in 40% BP-β-CD was made as follows. About 10 mL of the 40% HP-β-CD solution were added to a glass beaker containing a stir bar. The beaker was placed on a magnetic plate and the stir bar was set to stir at medium speed. About […] of M4N were slowly added to the 40% HP-β-CD in the center of the beaker with the aid of a spatula. The M4N/40% HP-β-CD mixture was stirred for 2 hr or until all M4N was uniformly suspended without any clumps being present. The M4N/40% HP-β-CD mixture was optionally heated at 80° C. for about 30 min. (or longer if a larger volume of solution was desired, for example, 1 hr at 80° C. for 100 mL of the M4N/HP-β-CD mixture), or longer as needed to ensure complete dissolution of M4N. […] The final M4N/40% HP-β-CD solution was stored at room temperature and was kept protected from light. This process may be scaled up or down to obtain the requisite volume or concentration of M4N. Formulations containing M4N in other cyclodextrin solutions may be similarly made, such as, for example, by substituting HP-β-CD in the process described above with other cyclodextrins. […]
A 10 mL solution of M4N at a concentration of about 10 mg/mL in 50% HP-β-CD/0.5% HPMC was made as follows. About 10 mL of the 50% HP-β-CD/0.5% HPMC solution were added to a glass beaker containing a stir bar. The beaker was placed on a magnetic plate and the stir bar was set to stir at medium speed. About 100 mg of M4N were slowly added to the 50% HP-β-CD/0.5% HPMC in the center of the beaker with the aid of a spatula. The M4N/50% HP-β-CD/0.5% HPMC mixture was stirred for 24 hr or until all M4N was uniformly suspended without any clumps being present. The M4N/50% HP-β-CD/0.5% HPMC mixture was heated at about 90° C. for about 30 min. (or longer if a larger volume of solution was desired, for example, 1 hr at 90° C. for 500 mL of the M4N/50% HP-β-CD/0.5% HPMC mixture), or longer as needed to ensure complete dissolution of M4N. […] The final M4N/50% HP-β-CD/0.5% HPMC solution was stored at room temperature and was kept protected from light.
A 10 mL solution of M4N at a concentration of about 20 mg/mL in 5% EC (w/v) (the “EC formulation”) was made as follows. About 10 mL of 5% EC formulation, made as described above, were added to a glass beaker containing a stir bar. The beaker was placed on a magnetic plate and the stir bar was set to stir at medium speed, and covered with a round Teflon® cover. About 200 mg of M4N were slowly added to the 5% EC formulation in the center of the beaker with the aid of a spatula to prevent M4N from sticking to the beaker wall. The M4N/EC mixture was stirred for 2 hr or until all M4N had dissolved or was uniformly suspended without any clumps being present. The M4N/EC mixture was heated at about 60° C. for about 30 min. (or longer if a larger volume of solution was desired, for example, 1 hr at 60° C. for 500 mL of the M4N/EC mixture), or longer as needed to ensure complete dissolution of M4N. […] The final M4N/EC solution was stored at room temperature and was kept protected from light.
A 10 mL solution of M4N at a concentration of about 50 mg/mL in sesame oil was made as follows. About 10 mL of sesame oil were added to a glass beaker containing a stir bar. The beaker was placed on a magnetic plate and the stir bar was set to stir at medium speed. About 500 mg of M4N were slowly added to the sesame oil in the center of the beaker with the aid of a spatula to prevent M4N from sticking to the beaker wall. The M4N/sesame oil mixture was stirred for about 2 hr or until all M4N had dissolved or was uniformly suspended without any clump being present. The M4N/sesame oil mixture was heated at about 60° C. for about 30 min. (or longer if a larger volume of solution was desired, for example, 1 hr at 60° C. for 500 mL of the M4N/sesame oil mixture), or longer as need to ensure complete dissolution of M4N. […]

[1] = M4N 10 mg/mL in 32% HP-β-CD, 20% PEG 400 (v/v)
[2] = M4N 10 mg/mL in 40% HP-β-CD, 1% PVP (w/v)
[3] = M4N 10 mg/mL in 40% HP-β-CD, 5% PEG 400 (v/v)
[4] = M4N 10 mg/mL in 50% HP-β-CD in saline
[5] = M4N 10 mg/mL in 50% HP-β-CD, 0.5% HPMC
[6] = M4N 10 mg/mL in 50% HP-β-CD, 1.25% PVP (w/v)
[7] = M4N 12.5 mg/mL in 12.5% HP-β-CD, 50% PEG 300 (v/v)
[8] = M4N 12.5 mg/mL in 12.5% HP-β-CD, 50% PEG 400 (v/v)
[9] = M4N 12.5 mg/mL in 15% HP-β-CD, 50% PEG 300 (v/v)
[10] = M4N 12.5 mg/mL in 15% HP-β-CD, 50% PEG 400 (v/v)
[11] = M4N 12.5 mg/mL in 20% HP-β-CD, 50% PEG 300 (v/v)
[12] = M4N 12.5 mg/mL in 20% HP-β-CD, 50% PEG 400 (v/v)
[13] = M4N 12.5 mg/mL in 30% HP-β-CD, 25% PEG 400 (v/v)
[14] = M4N 12.9 mg/mL in 23% HP-β-CD, 43% PEG 400 (v/v)
[15] = M4N 12.9 mg/mL in 23% HP-β-CD, 43 PEG 300 (v/v)
[16] = M4N 13.3 mg/mL in 27% HP-β-CD, 33% PEG 300 (v/v)
Throughout, for Dissolution After Cool Down: key: N represents 'No'; Y represents 'Yes.'.

In the case of `COc1ccc(C[C@@H](C)[C@@H](C)Cc2ccc(OC)c(OC)c2)cc1OC` [Formulation M4N, meso-1,4-bis(3,4-dimethoxyphenyl)-2,3-dimethylbutane], the “Dissolution After Cool Down” value [1] was “Y”, the “Dissolution After Rotation” value [1] was “N” and the “Dissolution After Heating at X° C.” value (M4N 10 mg/mL in 32% HP-β-CD, 20% PEG 400 (v/v), 60°) was “Y at 60°”. The “Dissolution After Cool Down” value (M4N 10 mg/mL in 40% HP-β-CD) was “Y”, the “Dissolution After Rotation” value (M4N 10 mg/mL in 40% HP-β-CD) was “N” and the “Dissolution After Heating at X° C.” value [2] was “N”. For the same compound, the “Dissolution After Rotation” value [2] was “N”, the “Dissolution After Rotation” value (M4N 10 mg/mL in 40% HP-β-CD, 2.5% PG (v/v)) was “N” and the “Dissolution After Heating at X° C.” value (M4N 10 mg/mL in 40% HP-β-CD, 2.5% PG (v/v), 80°) was “N at 80°”. The “Dissolution After Cool Down” value [3] was “N”, the “Dissolution After Rotation” value [3] was “N” and the “Dissolution After Heating at X° C.” value (M4N 10 mg/mL in 40% HP-β-CD, 5% PEG 400 (v/v), 60°) was “Y at 60°”. For the same compound, the “Dissolution After Heating at X° C.” value (M4N 10 mg/mL in 40% HP-β-CD, 80°) was “Y at 80°”, the “Dissolution After Cool Down” value (M4N 10 mg/mL in 50% HP-β-CD) was “Y” and the “Dissolution After Rotation” value (M4N 10 mg/mL in 50% HP-β-CD) was “N”. The “Dissolution After Cool Down” value [4] was “Y”, the “Dissolution After Rotation” value [4] was “N” and the “Dissolution After Heating at X° C.” value (M4N 10 mg/mL in 50% HP-β-CD in saline, 90°) was “Y at 90°”. The “Dissolution After Cool-Down” value [5] was “Y”, the “Dissolution After Rotation” value [5] was “N” and the “Dissolution After Rotation” value (M4N 10 mg/mL in 50% HP-β-CD, 0.5% HPMC, other experiment, no heat) was “Suspension”. For the same compound, the “Dissolution After Heating at X° C.” value [6] was “N”, the “Dissolution After Rotation” value [6] was “N” and the “Dissolution After Heating at X° C.” value (M4N 10 mg/mL in 50% HP-β-CD, 90°) was “Y at 90°”. For the same compound, the “Dissolution After Cool-Down” value (M4N 10 mg/mL in Corn Oil) was “Y”, the “Dissolution After Cool-Down” value (M4N 10 mg/mL in Mineral Oil) was “Y” and the “Dissolution After Cool-Down” value (M4N 10 mg/mL in Soybean Oil) was “Y”. The “Dissolution After Rotation” value (M4N 12 mg/mL in 40% HP-β-CD) was “N”, the “Dissolution After Heating at X° C.” value (M4N 12 mg/mL in 40% HP-β-CD, 80°) was “N at 80°” and the “Dissolution After Cool Down” value [7] was “Y”. The “Dissolution After Rotation” value [7] was “N”, the “Dissolution After Heating at X° C.” value (M4N 12.5 mg/mL in 12.5% HP-β-CD, 50% PEG 300 (v/v), 60°) was “Y at 60°” and the “Dissolution After Cool Down” value [8] was “Y”. The “Dissolution After Rotation” value [8] was “N”, the “Dissolution After Heating at X° C.” value (M4N 12.5 mg/mL in 12.5% HP-β-CD, 50% PEG 400 (v/v), 60°) was “Y at 60°” and the “Dissolution After Cool Down” value [9] was “Y”. The “Dissolution After Rotation” value [9] was “N”, the “Dissolution After Heating at X° C.” value (M4N 12.5 mg/mL in 15% HP-β-CD, 50% PEG 300 (v/v), 60°) was “Y at 60°” and the “Dissolution After Cool Down” value [10] was “Y”. For the same compound, the “Dissolution After Rotation” value [10] was “N”, the “Dissolution After Heating at X° C.” value (M4N 12.5 mg/mL in 15% HP-β-CD, 50% PEG 400 (v/v), 60°) was “Y at 60°” and the “Dissolution After Cool Down” value [11] was “Y”. For the same compound, the “Dissolution After Rotation” value [11] was “N”, the “Dissolution After Heating at X° C.” value (M4N 12.5 mg/mL in 20% HP-β-CD, 50% PEG 300 (v/v), 60°) was “Y at 60°” and the “Dissolution After Cool Down” value [12] was “Y”. The “Dissolution After Rotation” value [12] was “N”, the “Dissolution After Heating at X° C.” value (M4N 12.5 mg/mL in 20% HP-β-CD, 50% PEG 400 (v/v), 60°) was “Y at 60°” and the “Dissolution After Cool Down” value [13] was “Y”. The “Dissolution After Rotation” value [13] was “N”, the “Dissolution After Heating at X° C.” value (M4N 12.5 mg/mL in 30% HP-β-CD, 25% PEG 400 (v/v), 60°) was “Y at 60°” and the “Dissolution After Cool Down” value [14] was “Y”. The “Dissolution After Rotation” value [14] was “N”, the “Dissolution After Heating at X° C.” value (M4N 12.9 mg/mL in 23% HP-β-CD, 43% PEG 400 (v/v), 60° C.) was “Y at 60 °C” and the “Dissolution After Cool Down” value [15] was “Y”. The “Dissolution After Rotation” value [15] was “N”, the “Dissolution After Heating at X° C.” value (M4N 12.9 mg/mL in 23% HP-β-CD, 43 PEG 300 (v/v), 60°) was “Y at 60°” and the “Dissolution After Cool Down” value [16] was “Y”. For the same compound, the “Dissolution After Rotation” value [16] was “N” and the “Dissolution After Heating at X° C.” value (M4N 13.3 mg/mL in 27% HP-β-CD, 33% PEG 300 (v/v), 60°) was “Y at 60°”.
